Where two headings read alike, the source gives them in different places.
Legend:
[1] = molecular target: recombinant PIM-1 (Homo sapiens, UniProt P11309); assay: PIM-1 kinase assay (radiometric, 15 uM ATP, DMSO 4%); format: biochemical; conditions: for inhibition at 2 µM: % inhibition at the high dose (2 micromolar) in a single screening assay, 15 μM ATP
[2] = test system: K-562; assay: Alamar Blue cell proliferation assay, K-562; format: cell-based; conditions: Homo sapiens, K562, Table 4, read-out: AB: K-562
Protocol: (§1) A representative cell-proliferation assay protocol using Alamar Blue dye (stored at 4° C., use 20 ul per well) is described hereafter.
(§2) 96-Well Plate Setup and Compound Treatment
(§3) a. Split and trypsinize cells.
(§4) b. Count cells using hemocytometer.
(§5) c. Plate 4,000-5,000 cells per well in 100 μl of medium and seed into a 96-well plate according to the following plate layout. Add cell culture medium only to wells B10 to B12. Wells B1 to B9 have cells but no compound added.
(§6) d. Add 100 μl of 2× drug dilution to each well in a concentration shown in the plate layout above. At the same time, add 100 μl of media into the control wells (wells 1310 to B12). Total volume is 200 μl/well.
(§7) e. Incubate four (4) days at 37° C., 5% CO2 in a humidified incubator.
(§8) f. Add 20 μl Alamar Blue reagent to each well.
(§9) g. Incubate for four (4) hours at 37° C., 5% CO2 in a humidified incubator.
(§10) h. Record fluorescence at an excitation wavelength of 544 nm and emission wavelength of 590 nm using a microplate reader.
(§11) In the assays, cells are cultured with a test compound for approximately four days, the dye is then added to the cells and fluorescence of […] dye is detected after approximately four hours. Different types of cells can be utilized in the assays (e.g., HCT-116 human colorectal carcinoma cells, PC-3 human prostatic cancer cells and MiaPaca human pancreatic carcinoma cells).

[3] = test system: MV-4-11; assay: Alamar Blue cell proliferation assay, MV-4-11; format: cell-based; conditions: Homo sapiens, MV4-11, Table 4, read-out: AB: MV-4-11
Protocol: as §1, §2, §3, §4, §5, §6, §7, §8, §9, §10, §11

[4] = Table 1, given for compounds with IC50 at or below 2 micromolar, 15 uM ATP, read-out: PIM-1 IC50

Chain of recombinant PIM-1 (P11309 whole entry): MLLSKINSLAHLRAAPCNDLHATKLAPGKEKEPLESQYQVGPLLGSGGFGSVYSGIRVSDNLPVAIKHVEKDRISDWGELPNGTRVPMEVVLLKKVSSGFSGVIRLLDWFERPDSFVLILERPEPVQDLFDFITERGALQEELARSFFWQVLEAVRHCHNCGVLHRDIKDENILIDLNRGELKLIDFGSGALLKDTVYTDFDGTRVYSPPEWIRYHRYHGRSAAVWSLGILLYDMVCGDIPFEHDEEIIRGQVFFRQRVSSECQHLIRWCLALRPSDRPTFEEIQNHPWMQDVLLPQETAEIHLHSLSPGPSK

Row | SMILES | inhibition at 2 µM ([1]; Table 1) | IC50 [1, 4] | other results
1 | CN1CCCCC1CNC(=O)c1ccccc1-c1ccc(/C=C2/C(=O)Nc3ccc(F)cc32)o1 (stereo not shown) [Compound 66] | 4.53% |  | 
2 | CN1CCN(c2ccc(-c3ccc(/C=C4/C(=O)Nc5ccccc54)o3)cn2)CC1 [Compound 126] | 19.5% |  | 
3 | O=C1Nc2cc(C(F)(F)F)ccc2/C1=C\c1ccc(-c2cccc(C(=O)NCCN3CCCC3)c2)o1 [Compound 49] | 2.7% |  | 
4 | Cc1cnc(CNC(=O)c2ccc(-c3ccc(/C=C4/C(=O)Nc5ccc(Cl)cc54)o3)cc2)cn1 [Compound 140] |  | < 1 µM | 
5 | O=C1Nc2ccccc2/C1=C\c1ccc(-c2ccccc2C(=O)O)o1 [Compound 31] | 11.4% |  | 
6 | O=C1Nc2ccccc2/C1=C\c1ccc(-c2cc(C(=O)NCCN3CCCC3)ccc2Cl)o1 [Compound 14] |  | < 2 µM | 
7 | Nc1cccc(-c2ccc(/C=C3/C(=O)Nc4ccccc43)o2)c1 [drawing 234] |  |  | IC50 [2]: 5.13 µM; IC50 [3]: 2.44 µM; IC50 ([1]; Table 4, 15 um ATP, read-out: PIM1: IC50 (15 um ATP)): 0.992 µM
8 | CN(C)C1CCN(C(=O)c2ccccc2-c2ccc(/C=C3/C(=O)Nc4ccc(F)cc43)o2)CC1 [Compound 67] | 8.84% |  | 
9 | O=C1Nc2cc(F)ccc2/C1=C\c1ccc(-c2cccc(C(=O)NCCN3CCCC3)c2)o1 [Compound 39] | 21% |  | 
10 | CN(C)C1CCN(C(=O)c2cccc(-c3coc(/C=C4/C(=O)Nc5ccc(F)cc54)c3)c2)CC1 [Compound 96] | 10.8% |  | 
11 | CN1CCCN(C(=O)c2ccc(-c3ccc(/C=C4/C(=O)Nc5ccc(Cl)cc54)o3)cc2)CC1 [Compound 196] |  | < 1 µM | 
12 | O=C1Nc2ccc(Cl)cc2/C1=C\c1ccc(-c2cccc(C(=O)NCCN(CCO)CCO)c2)o1 [Compound 193] |  | < 1 µM | 
13 | CN1CCCC(NC(=O)c2ccc(-c3ccc(/C=C4/C(=O)Nc5ccccc54)o3)cc2)C1 (stereo not shown) [Compound 35] |  | < 1 µM | 
14 | COCCNC(=O)c1ccc2c(c1)/C(=C\c1ccc(-c3cccc(C(=O)NCCN4CCCC4)c3)o1)C(=O)N2 [Compound 7] | 32.7% |  | 
15 | O=C1Nc2ccc(F)cc2/C1=C\c1ccc(-c2ccc(C(=O)NCCN3CCCC3)cc2)o1 [Compound 81] | 94.8% | < 1 µM | 
16 | CN1CCCC(NC(=O)c2ccccc2-c2ccc(/C=C3/C(=O)Nc4ccc(F)cc43)o2)C1 (stereo not shown) [Compound 63] | 10.3% |  | 
17 | CN1CCN(C(=O)c2cccc(-c3ccc(/C=C4/C(=O)Nc5ccc(Cl)cc54)o3)c2)CC1 [Compound 114] | 23% |  | 
18 | CCN(CC)CCNC(=O)c1cccc(-c2coc(/C=C3/C(=O)Nc4ccc(F)cc43)c2)c1 [Compound 94] | 11.5% |  | 
19 | O=C1Nc2ccc(F)cc2/C1=C\c1ccc(-c2ccc(Cl)c(C(=O)N3CCCCC3)c2)o1 [Compound 77] | -17% |  | 
20 | CN(C)CCNC(=O)c1cccc(-c2ccc(/C=C3/C(=O)Nc4ccc(Cl)cc43)o2)c1 [Compound 118] |  | < 1 µM | 
21 | Cn1cncc1CNC(=O)c1cccc(-c2ccc(/C=C3/C(=O)Nc4ccc(F)cc43)o2)c1 [Compound 22] |  | < 1 µM | 
22 | C/C(=C1\C(=O)Nc2ccc(Cl)cc21)c1ccc(-c2ccc(C(=O)N3CCCN(C)CC3)cc2)o1 [Compound 195] |  | < 1 µM | 
23 | CN1CCCCC1CNC(=O)c1cccc(-c2coc(/C=C3/C(=O)Nc4ccc(F)cc43)c2)c1 (stereo not shown) [Compound 93] | 9.42% |  | 
24 | Nc1cc(C(=O)NCCN2CCCC2)ccc1-c1ccc(/C=C2/C(=O)Nc3ccccc32)o1 [Compound 144] |  | < 1 µM | 
25 | CN1CCCCC1CNC(=O)c1cccc(-c2ccc(/C=C3/C(=O)Nc4cc(F)ccc43)o2)c1 (stereo not shown) [Compound 40] | 33.9% |  | 

— US20120190669A1, “OXINDOLE COMPOUNDS” (CYLENE PHARMACEUTICALS, INC., priority 2008, published 2012)
